From patent US8383094B2, “Hepatitis C virus inhibitors” (Bristol-Myers Squibb Company, priority 2008, dated 2013)
Where two headings read alike, the source gives them in different places.

System: HCV 1b genotype
Experiment: HCV Replicon assay (HCV-neo replicon cells, wild-type)
Type: cell-based
Conditions: HCV 1b genotype replicon, read-out: 1b EC50 (in μM or range)
[1] = Hepatitis C virus, range class A-D

Structure (SMILES): CC(C)(C(=O)N1CCC[C@H]1C(=O)Nc1ccc(C#Cc2ccc(NC(=O)[C@@H]3CCCN3C(=O)C(C)(C)c3ccccc3)cc2)cc1)c1ccccc1 [VN3, (2S,2′S)-N,N′-(1,2-ethynediyldi-4,1-phenylene)bis(1-(2-methyl-2-phenylpropanoyl)-2-pyrrolidinecarboxamide)]
- EC50 [1]: 4.57 to 99 nM

Structure (SMILES): O=C(Nc1ccc(C#Cc2ccc(NC(=O)[C@@H]3CCCN3C(=O)C3(c4ccccc4)CC3)cc2)cc1)[C@@H]1CCCN1C(=O)C1(c2ccccc2)CC1 [VN4, (2S,2′S)-N,N′-(1,2-ethynediyldi-4,1-phenylene)bis(1-((1-phenylcyclopropyl)carbonyl)-2-pyrrolidinecarboxamide)]
- EC50 [1]: < 4.57 nM

Structure (SMILES): O=C(Nc1ccc(C#Cc2ccc(NC(=O)[C@@H]3CCCN3C(=O)C3(c4ccccc4)CCCC3)cc2)cc1)[C@@H]1CCCN1C(=O)C1(c2ccccc2)CCCC1 [VN5, (2S,2′S)-N,N′-(1,2-ethynediyldi-4,1-phenylene)bis(1-((1-phenylcyclopentyl)carbonyl)-2-pyrrolidinecarboxamide)]
- EC50 [1]: 4.57 to 99 nM

Structure (SMILES): CC[C@H](C(=O)N1CCC[C@H]1C(=O)Nc1ccc(C#Cc2ccc(NC(=O)[C@@H]3CCCN3C(=O)[C@@H](CC)c3ccccc3)cc2)cc1)c1ccccc1 [VN6, (2S,2′S)-N,N′-(1,2-ethynediyldi-4,1-phenylene)bis(1-((2S)-2-phenylbutanoyl)-2-pyrrolidinecarboxamide)]
- EC50 [1]: 4.57 to 99 nM

Structure (SMILES): CC[C@@H](C(=O)N1CCC[C@H]1C(=O)Nc1ccc(C#Cc2ccc(NC(=O)[C@@H]3CCCN3C(=O)[C@H](CC)c3ccccc3)cc2)cc1)c1ccccc1 [VN7, (2S,2′S)-N,N′-(1,2-ethynediyldi-4,1-phenylene)bis(1-((2R)-2-phenylbutanoyl)-2-pyrrolidinecarboxamide)]
- EC50 [1]: < 4.57 nM

Structure (SMILES): O=C(Nc1ccc(C#Cc2ccc(NC(=O)[C@@H]3CCCN3C(=O)C(F)c3ccccc3)cc2)cc1)[C@@H]1CCCN1C(=O)C(F)c1ccccc1 (stereo partly drawn) [VN8, (2S,2′S)-N,N′-(1,2-ethynediyldi-4,1-phenylene)bis(1-(fluoro(phenyl)acetyl)-2-pyrrolidinecarboxamide)]
- EC50 [1]: < 4.57 nM

Structure (SMILES): C[C@@H](C(=O)N1CCC[C@H]1C(=O)Nc1ccc(C#Cc2ccc(NC(=O)[C@@H]3CCCN3C(=O)[C@H](C)c3ccccc3)cc2)cc1)c1ccccc1 [VN9, (2S,2′S)-N,N′-(1,2-ethynediyldi-4,1-phenylene)bis(1-((2R)-2-phenylpropanoyl)-2-pyrrolidinecarboxamide)]
- EC50 [1]: < 4.57 nM

Structure (SMILES): CCC(O)(C(=O)N1CCC[C@H]1C(=O)Nc1ccc(C#Cc2ccc(NC(=O)[C@@H]3CCCN3C(=O)C(O)(CC)c3ccccc3)cc2)cc1)c1ccccc1 (stereo partly drawn) [VN10, (2S,2′S)-N,N′-(1,2-ethynediyldi-4,1-phenylene)bis(1-(2-hydroxy-2-phenylbutanoyl)-2-pyrrolidinecarboxamide)]
- EC50 [1]: < 4.57 nM

Structure (SMILES): O=CN[C@@H](C(=O)N1CCC[C@H]1C(=O)Nc1ccc(C#Cc2ccc(NC(=O)[C@@H]3CCCN3C(=O)[C@H](NC=O)c3ccccc3)cc2)cc1)c1ccccc1 [VN11, (2S,2′S)-N,N′-(1,2-ethynediyldi-4,1-phenylene)bis(1-((2R)-2-formamido-2-phenylacetyl)-2-pyrrolidinecarboxamide)]
- EC50 (Hepatitis C virus): 0.01 nM

Structure (SMILES): O=C(Nc1ccc(C#Cc2ccc(NC(=O)[C@@H]3CCCN3C(=O)[C@@H](c3ccccc3)N3CCCC3)cc2)cc1)[C@@H]1CCCN1C(=O)[C@@H](c1ccccc1)N1CCCC1 [VN12, (2S,2′S)-N,N′-(1,2-ethynediyldi-4,1-phenylene)bis(1-((2R)-2-phenyl-2-(1-pyrrolidinyl)acetyl)-2-pyrrolidinecarboxamide)]
- EC50 [1]: < 4.57 nM

Structure (SMILES): O=C(Nc1ccc(C#Cc2ccc(NC(=O)[C@@H]3CCCN3C(=O)[C@@H](c3ccccc3)N3CCOCC3)cc2)cc1)[C@@H]1CCCN1C(=O)[C@@H](c1ccccc1)N1CCOCC1 [VN13, (2S,2′S)-N,N′-(1,2-ethynediyldi-4,1-phenylene)bis(1-((2R)-2-(4-morpholinyl)-2-phenylacetyl)-2-pyrrolidinecarboxamide)]
- EC50 [1]: < 4.57 nM

Structure (SMILES): CC(=O)N[C@H](C)C(=O)N1CCC[C@H]1C(=O)Nc1ccc(C#Cc2ccc(NC(=O)[C@@H]3CCCN3C(=O)[C@@H](C)NC(C)=O)cc2)cc1 [VN14, (2S,2′S)-N,N′-(1,2-ethynediyldi-4,1-phenylene)bis(1-((2R)-2-acetamidopropanoyl)-2-pyrrolidinecarboxamide)]
- EC50 [1]: 4.57 to 99 nM

Structure (SMILES): CC(=O)N[C@@H](C)C(=O)N1CCC[C@H]1C(=O)Nc1ccc(C#Cc2ccc(NC(=O)[C@@H]3CCCN3C(=O)[C@H](C)NC(C)=O)cc2)cc1 [VN15, (2S,2′S)-N,N′-(1,2-ethynediyldi-4,1-phenylene)bis(1-((2S)-2-acetamidopropanoyl)-2-pyrrolidinecarboxamide)]
- EC50 [1]: 100 to 999 nM

Structure (SMILES): CN(C)C1(C(=O)N2CCC[C@H]2C(=O)Nc2ccc(C#Cc3ccc(NC(=O)[C@@H]4CCCN4C(=O)C4(N(C)C)Cc5ccccc5C4)cc3)cc2)Cc2ccccc2C1 [VN16, (2S,2′S)-N,N′-(1,2-ethynediyldi-4,1-phenylene)bis(1-((2-(dimethylamino)-2,3-dihydro-1H-inden-2-yl)carbonyl)-2-pyrrolidinecarboxamide)]
- EC50 [1]: 4.57 to 99 nM

Structure (SMILES): CN1C[C@@H]2C[C@H]1CN2C(C(=O)N1CCC[C@H]1C(=O)Nc1ccc(C#Cc2ccc(NC(=O)[C@@H]3CCCN3C(=O)C(c3ccccc3)N3C[C@@H]4C[C@H]3CN4C)cc2)cc1)c1ccccc1 (stereo partly drawn) [VN18, (2S,2′S)-N,N′-(1,2-ethynediyldi-4,1-phenylene)bis(1-(((1S,4S)-5-methyl-2,5-diazabicyclo[2.2.1]hept-2-yl)(phenyl)acetyl)-2-pyrrolidinecarboxamide)]
- EC50: 130 nM

Structure (SMILES): CN1C[C@@H]2C[C@H]1CN2C(C(=O)N1CCC[C@H]1C(=O)Nc1ccc(C#Cc2ccc(NC(=O)[C@@H]3CCCN3C(=O)C(c3ccccc3)N3C[C@@H]4C[C@H]3CN4C)cc2)cc1)c1ccccc1 (stereo partly drawn) [VN19, (2S,2′S)-N,N′-(1,2-ethynediyldi-4,1-phenylene)bis(1-(((1S,4S)-5-methyl-2,5-diazabicyclo[2.2.1]hept-2-yl)(phenyl)acetyl)-2-pyrrolidinecarboxamide)]
- EC50: 5.2 nM

Structure (SMILES): O=C(Nc1ccc(C#Cc2ccc(NC(=O)[C@@H]3CCCN3C(=O)C(c3ccccc3)N3CCC(O)CC3)cc2)cc1)[C@@H]1CCCN1C(=O)C(c1ccccc1)N1CCC(O)CC1 (stereo partly drawn) [VN20, (2S,2′S)-N,N′-(1,2-ethynediyldi-4,1-phenylene)bis(1-((4-hydroxy-1-piperidinyl)(phenyl)acetyl)-2-pyrrolidinecarboxamide)]
- EC50 [1]: 4.57 to 99 nM

Structure (SMILES): O=C(Nc1ccc(C#Cc2ccc(NC(=O)[C@@H]3CCCN3C(=O)C(c3ccccc3)N3CCC(O)CC3)cc2)cc1)[C@@H]1CCCN1C(=O)C(c1ccccc1)N1CCC(O)CC1 (stereo partly drawn) [VN21, (2S,2′S)-N,N′-(1,2-ethynediyldi-4,1-phenylene)bis(1-((4-hydroxy-1-piperidinyl)(phenyl)acetyl)-2-pyrrolidinecarboxamide)]
- EC50 (Hepatitis C virus): 0.035 nM

Structure (SMILES): CN(C)[C@H](C(=O)N1CCC[C@H]1C(=O)Nc1ccc(C#Cc2ccc(NC(=O)[C@@H]3CCCN3C(=O)[C@H](c3ccccc3)N(C)C)cc2)cc1)c1ccccc1 [VN22, (2S,2′S)-N,N′-(1,2-ethynediyldi-4,1-phenylene)bis(1-((2S)-2-(dimethylamino)-2-phenylacetyl)-2-pyrrolidinecarboxamide)]
- EC50 [1]: < 4.57 nM
